In brackets after ≈: the same amount, converted by molar mass.
Key:
[1] = test system: Acinetobacter baumannii ATCC19606; assay: MIC, broth microdilution; format: cell-based; settings: Acinetobacter baumannii ATCC19606; read-out: MIC A. b. 19606
Experimental: (§1) All target derivatives were assessed for their in vitro antibacterial activities using a broth microdilution assay to test their minimum inhibitory concentrations (MICs) against six Gram-positive strains (S. aureus ATCC31007, S. aureus ATCC25923, S. aureus ATCC43300, E. faecalis ATCC29212, B. subtilis ATCC9372, and S. epidermidis ATCC12228) and four Gram-negative strains (A. baumannii ATCC19606, K. pneumonia ATCC10031, E. coli ATCC25922, and P. aeruginosa ATCC27853). These compounds were also evaluated for their hemolytic activities and membrane selectivity by determining their HC50 (the concentration required to lyse 50% of red blood cells) and SI (HC50/MICs) values, respectively, and vancomycin was used as the positive drug.
(§2) MICs of the derivatives were determined by the micro broth dilution method according to the American Clinical and Laboratory Standards Institute (CLSI) standards. Briefly, 2-fold serial dilutions of target compounds were prepared in 96-well plates containing TSB broth. An equal volume of bacterial suspension (10^6 CFU/mL) was then pipetted into each well, and the mixture was incubated at 37 °C for 24 h. […] All biological experiments were repeated three times.

[2] = test system: Bacillus subtilis ATCC9372, penicillin-susceptible strain; assay: MIC, broth microdilution; format: cell-based; settings: Bacillus subtilis ATCC9372; read-out: MIC B. s. 9372
Experimental: as §1, §2

[3] = test system: Enterococcus faecalis ATCC29212, vancomycin-susceptible strain; assay: MIC, broth microdilution; format: cell-based; settings: Enterococcus faecalis ATCC29212; read-out: MIC E. f. 29212
Experimental: as §1, §2

[4] = test system: Escherichia coli ATCC25922, penicillin-susceptible strain; assay: MIC, broth microdilution; format: cell-based; settings: Escherichia coli ATCC25922; read-out: MIC E. c. 25922
Experimental: as §1, §2

[5] = test system: Klebsiella pneumonia ATCC10031; assay: MIC, broth microdilution; format: cell-based; settings: Klebsiella pneumoniae; Klebsiella pneumonia ATCC10031; read-out: MIC K. p. 10031
Experimental: as §1, §2

[6] = test system: Pseudomonas aeruginosa ATCC27853, penicillin-susceptible strain; assay: MIC, broth microdilution; format: cell-based; settings: Pseudomonas aeruginosa ATCC27853; read-out: MIC P. a. 27853
Experimental: as §1, §2

[7] = test system: Staphylococcus aureus ATCC25923, erythromycin-susceptible strain; assay: MIC, broth microdilution; format: cell-based; settings: Staphylococcus aureus ATCC25923; read-out: MIC S. a. 25923
Experimental: as §1, §2

[8] = test system: Staphylococcus aureus ATCC31007, penicillin-resistant strain; assay: MIC, broth microdilution; format: cell-based; settings: Staphylococcus aureus ATCC31007; read-out: MIC S. a. 31007
Experimental: as §1, §2

[9] = test system: Staphylococcus epidermidis ATCC12228, erythromycin-susceptible strain; assay: MIC, broth microdilution; format: cell-based; settings: Staphylococcus epidermidis ATCC12228; read-out: MIC S. e. 12228
Experimental: as §1, §2

[10] = test system: Staphylococcus aureus ATCC43300, methicillin-resistant strain; assay: microbe, parasite or virus in culture; format: cell-based; settings: ATCC 43300 / MRSA; Staphylococcus aureus ATCC43300 (MRSA); read-out: MIC S. a 43300
Experimental: as §1, §2

[11] = test system: Enterococcus faecalis ATCC51299, vancomycin-resistant strain; assay: MIC, broth microdilution; format: cell-based; settings: Enterococcus faecalis ATCC51299, vancomycin-resistant; read-out: MIC E. f. 51299
Experimental: as §2

[12] = test system: Enterococcus faecium ATCC51559, vancomycin-resistant strain; assay: MIC, broth microdilution; format: cell-based; settings: Enterococcus faecium ATCC51559, vancomycin-resistant; read-out: MIC E. f. 51559
Experimental: as §2

[13] = test system: red blood cells; assay: Hemolysis assay; format: cell-based, Sheep; settings: concentration required to lyse 50% of red blood cells; 37 °C, 1 h
Experimental: as §1
To further detect the hemolytic toxicity and therapeutic potential of these derivatives, we proceeded to examine the hemolytic activities and membrane selectivity of these derivatives. The HC50 value was defined as the concentration needed for a compound to lyse 50% of red blood cells, and it is often used to evaluate the hemolytic toxicity to eukaryotic cells. […] The selectivity index (SI) was calculated by HC50/MICs of S. aureus ATCC43300 and was used to assess the potency and safety of the compounds. […] Thus, compound 9h was selected as a representative molecule for the in-depth in vitro and in vivo studies.
Sheep blood was used to isolate red blood cells (RBCs), which were then resuspended in 1× PBS (5%). The compounds were dissolved in PBS to give an initial concentration of 5.12 mg/mL, compound solution (100 μL) was added to the first well of a 96-well plate, two-fold serial dilutions of compounds were prepared in 96-well plates, and then 150 μL of 5% RBC suspension was added to each well. This was followed by incubation at 37 °C for 1 h. After incubation, the plate was centrifuged (3500 rpm, 5 min), and 100 μL of supernatant solution from each well was carefully pipetted into a new plate. The absorbance values were measured at 540 nm. Erythrocyte hemolysis rate = (Absorbancecompound – Absorbance negative control)/(Absorbance1% Triton X-100 − Absorbance negative control) × 100%. All biological experiments were repeated three times.

[14] = test system: S. aureus; assay: MIC, summary over the S. aureus strains tested; format: cell-based; settings: Staphylococcus aureus; over the three S. aureus strains tested; read-out: MICs against S. aureus
Experimental: as §1, §2

[15] = test system: Gram-positive strains tested; assay: MIC, summary over the Gram-positive strains tested; format: cell-based; settings: read-out: MICs against the Gram-positive strains tested, range over the Gram-positive panel
Experimental: as §1, §2

SMILES | MIC [1] [µg/mL] | MIC [2] [µg/mL] | MIC [3] [µg/mL] | MIC [4] [µg/mL] | MIC [5] [µg/mL] | MIC [6] [µg/mL] | MIC [7] [µg/mL] | MIC [8] [µg/mL] | MIC [9] [µg/mL] | MIC [10] [µg/mL] | MIC [11] [µg/mL] | MIC [12] [µg/mL] | HC50 [13] [µg/mL] | MIC [14] [µg/mL] | MIC [15] [µg/mL]
CC[N+](CC)(CC)CCCOc1c(C(C)=O)ccc2c1C=CC(C)(CCC=C(C)C)O2 (stereo not shown) [Compound 5a, 3-((6-Acetyl-2-methyl-2-(4-methylpent-3-en-1-yl)-2H-chromen-5-yl)oxy)-N,N,N-triethylpropan-1-aminium] | > 128 | 64 | 64 | > 128 | 128 | > 128 | 8 | 128 | 64 | 64 | 16 | 16 | 571.5 | 8 to 128 | –
CCN(CC)CCCOc1c(C(C)=O)ccc2c1C=CC(C)(CCC=C(C)C)O2 (stereo not shown) [Compound 5c, 1-(5-(3-(Diethylamino)propoxy)-2-methyl-2-(4-methylpent-3-en-1-yl)-2H-chromen-6-yl)ethan-1-one] | 32 (≈ 80.1 µM) | 16 (≈ 40 µM) | 32 (≈ 80.1 µM) | 128 (≈ 320 µM) | 16 (≈ 40 µM) | 32 (≈ 80.1 µM) | 32 (≈ 80.1 µM) | 32 (≈ 80.1 µM) | 16 (≈ 40 µM) | 32 (≈ 80.1 µM) | 128 (≈ 320 µM) | 64 (≈ 160 µM) | 324.1 | 8 to 128 (≈ 20 to 320 µM) | –
CC(=O)c1ccc2c(c1OCCCN(C)CC(C)(C)CN(C)C)C=CC(C)(CCC=C(C)C)O2 (stereo not shown) [Compound 5g, 1-(5-(3-((3-(Dimethylamino)-2,2-dimethylpropyl)(methyl)amino)propoxy)-2-methyl-2-(4-methylpent-3-en-1-yl)-2H-chromen-6-yl)ethan-1-one] | 8 (≈ 17 µM) | 8 (≈ 17 µM) | 8 (≈ 17 µM) | 16 (≈ 34 µM) | 4 (≈ 8.5 µM) | 128 (≈ 272 µM) | 8 (≈ 17 µM) | 8 (≈ 17 µM) | 4 (≈ 8.5 µM) | 8 (≈ 17 µM) | 32 (≈ 68 µM) | 16 (≈ 34 µM) | 183.1 | 8 (≈ 17 µM) | –
CC(=O)c1ccc2c(c1OCCCNCCCN1CCCC1)C=CC(C)(CCC=C(C)C)O2 (stereo not shown) [Compound 5h] | 4 (≈ 8.8 µM) | 8 (≈ 17.6 µM) | 8 (≈ 17.6 µM) | 8 (≈ 17.6 µM) | 8 (≈ 17.6 µM) | 16 (≈ 35.2 µM) | 8 (≈ 17.6 µM) | 8 (≈ 17.6 µM) | 4 (≈ 8.8 µM) | 8 (≈ 17.6 µM) | 32 (≈ 70.4 µM) | 32 (≈ 70.4 µM) | 84.7 | 8 (≈ 17.6 µM) | –
CC[N+](CC)(CC)CCCOc1c2c(c3c(c1C(C)=O)OC(C)(CCC=C(C)C)C=C3)OC(C)(CCC=C(C)C)C=C2 (stereo not shown) [Compound 9a, 3-((6-Acetyl-2,8-dimethyl-2,8-bis(4-methylpent-3-en-1-yl)-2H,8H-pyrano[2,3-f]chromen-5-yl)oxy)-N,N,N-triethylpropan-1-aminium] | 128 | 1 | 4 | > 128 | > 128 | > 128 | 2 | 4 | 2 | 4 | 4 | 4 | 40.4 | 2 to 4 | –
CCN(CC)CCCOc1c2c(c3c(c1C(C)=O)OC(C)(CCC=C(C)C)C=C3)OC(C)(CCC=C(C)C)C=C2 (stereo not shown) [Compound 9c, 1-(5-(3-(Diethylamino)propoxy)-2,8-dimethyl-2,8-bis(4-methylpent-3-en-1-yl)-2H,8H-pyrano[2,3-f]chromen-6-yl)ethan-1-one] | > 128 | 2 (≈ 3.64 µM) | 1 (≈ 1.82 µM) | > 128 | > 128 | > 128 | 2 (≈ 3.64 µM) | 2 (≈ 3.64 µM) | 1 (≈ 1.82 µM) | 4 (≈ 7.28 µM) | 8 (≈ 14.6 µM) | 4 (≈ 7.28 µM) | 187.6 | 2 to 4 (≈ 3.64 to 7.28 µM) | –
CC(=O)c1c(OCCCN2CC(C)OC(C)C2)c2c(c3c1OC(C)(CCC=C(C)C)C=C3)OC(C)(CCC=C(C)C)C=C2 (stereo not shown) [Compound 9d, 1-(5-(3-(2,6-Dimethylmorpholino)propoxy)-2,8-dimethyl-2,8-bis(4-methylpent-3-en-1-yl)-2H,8H-pyrano[2,3-f]chromen-6-yl)ethan-1-one] | > 128 | > 128 | > 128 | > 128 | > 128 | > 128 | > 128 | > 128 | > 128 | > 128 | > 128 | > 128 | >1280 | – | > 64
CC(=O)c1c(OCCCSC(=N)N)c2c(c3c1OC(C)(CCC=C(C)C)C=C3)OC(C)(CCC=C(C)C)C=C2 (stereo not shown) [Compound 9e, 2-(3-((6-Acetyl-2,8-dimethyl-2,8-bis(4-methylpent-3-en-1-yl)-2H,8H-pyrano[2,3-f]chromen-5-yl)oxy)propyl)isothiouronium] | > 128 | 64 (≈ 116 µM) | 64 (≈ 116 µM) | > 128 | > 128 | > 128 | 8 (≈ 14.5 µM) | 128 (≈ 232 µM) | 128 (≈ 232 µM) | 64 (≈ 116 µM) | > 128 | > 128 | >1280 | – | > 64

Reference: paper PMC11350758, “Development of Xanthoangelol-Derived Compounds with Membrane-Disrupting Effects against Gram-Positive Bacteria” (Antibiotics, 2024)
